# Assays:
# [1] = test system: xenograft models of solid tumors and hematologic cancers; test: Nonclinical pharmacology xenograft studies; type: in vivo
# Excerpt: (§1) Compound I is a small molecule that inhibits expression of the c-Myc oncogene, leading to cell cycle arrest and programmed cell death (apoptosis) in human-derived solid tumor and hematologic cancer cells.
# [2] = test system: KLF4, c-Myc, CDX2, p21, and GAPDH genes; test: In vitro changes in gene expression; type: cell-based; conditions: AML cell lines
# Excerpt: (§2) Compound I free base and Compound I HCl salt were both tested for their in vitro antiproliferative potency against acute myeloid leukemia (AML) cell lines, for their concentration-dependent abilities to induce in vitro changes in gene expression (KLF4, c-Myc, CDX2, p21, and GAPDH genes) and to induce cell cycle arrest and apoptosis in AML cell lines.
# [3] = test system: acute myeloid leukemia (AML) cell lines; test: In vitro antiproliferative assay; type: cell-based
# Excerpt: as §2
# [4] = test system: AML cell lines; test: Induction of cell cycle arrest and apoptosis; type: cell-based
# Excerpt: as §2
# [5] = Formulation development: solubility and clinical infusion simulation through 5 μm in-line filter; type: physicochemical
# Protocol: Various pharmaceutical compositions were prepared in order to develop a formulation suitable for IV administration. […] A desirable IV pharmaceutical composition will be a solution. Further, a desirable IV pharmaceutical composition, when diluted with IV fluids will remain in solution. In addition, a desirable IV pharmaceutical composition, when diluted with IV fluids will remain in solution and pass an in-line filter of about 5 μm.
# Clinical infusion simulation study: formulated Compound I (equivalent to 4 mg/mL Compound I free base tetrahydrate) was mixed in-line with Lactated Ringers IV Solution through a controlled delivery system employing infusion pumps. The blended liquid was passed through a 5 μm in-line filter and the eluate was then passed to the end of the infusion line. Sample analysis was performed by collecting materials at 0, 15, 30, 60, 75, 90, 105, 115 and 120 minutes and analyzing immediately be visual assessment under a microscope.
# [6] = test system: c-Myc oncogene; test: Inhibition of c-Myc expression in cancer cells; type: cell-based; conditions: human-derived solid tumor and hematologic cancer cells
# Excerpt: as §1
structure (smiles),measurement,setting,value
"Cc1[nH]c2ccc(F)cc2c1-c1nc2c3cccnc3c3ncccc3c2[nH]1 [Compound I, 2-(5-fluoro-2-methyl-1H-indol-3-yl)-1H-imidazo[4,5-f][1,10]phenanthroline]",in vivo anti-tumor activity,[1],demonstrated in vivo anti-tumor activity
same,"concentration-dependent in vitro changes in gene expression, free base versus HCl salt",[2],behaved equivalently
same,"in vitro antiproliferative potency, free base versus HCl salt",[3],behaved equivalently
same,"induction of cell cycle arrest and apoptosis, free base versus HCl salt",[4],behaved equivalently
same,solubility compared with Compound I-HCl under the same conditions,"[5]; Solutol HS 15, PG, PEG-400, water",more soluble
same,apparent solubility while adding water to the formulation,"[5]; in the beginning, approximately 3-10 mL water added",more soluble
same,behaviour upon addition of IV fluid,[5]; pharmaceutical composition prepared with Fischer Scientific's PG,crashed out of solution
same,effect of PEG-400 on solubility,[5]; tested conditions (entries 2 and 3),did not improve solubility
same,apparent solubility while adding water to the formulation,"[5]; upon complete addition of water (up to 60 mL), cloudy formulation",insoluble
same,expression of the c-Myc oncogene,[6],inhibits
